Results from patent US20230083012A1, “DIHYDROPYRIMIDINE DERIVATIVES AND USES THEREOF IN THE TREATMENT OF HBV INFECTION OR OF HBV-INDUCED DISEASES” (priority 2019, published 2023).
Where two headings read alike, the source gives them in different places.

How the values were obtained:
[1] = system: HBV; test: Anti-HBV activity in HepG2.2.15 cells (HBV DNA in culture medium by qPCR); type: cell-based; settings: HepG2.2.15 cells, 6 days treatment, HBV DNA in culture medium quantified by real-time PCR, read-out: EC50
Summary of the method: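 Secreted HBV DNA was measured by real-time PCR after 6-day compound exposure of HepG2.2.15 cells (2% FBS, 37 °C, re-dosed after 3 days), giving EC50 from 8-point 1:3 series starting at 10 or 1 uM. Cytotoxicity (CC50) run separately at lower cell density, top 100 uM.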

[2] = Cytotoxicity determination in HepG2.2.15 cells (CCK-8 cell viability); type: cell-based; settings: human, 6 days treatment, CCK-8 assay, highest concentration 100 uM
Summary of the method: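 Viability measured by CCK-8 absorbance (450 nm, 630 nm reference, 2.5 h at 37° C) after six days of treatment, medium and compound renewed on day 3. Top concentration 100 uM, eight threefold dilutions in triplicate; cells plated at 5,000/well in 2% FBS medium; CC50 derived.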

[3] = Hepatitis B virus, HepG2.2.15, 144 h

Compound: COC(=O)C1=C(CN2CC(F)(F)[C@@H]3C(=O)N(CC(C)(C)C(=O)O)C[C@@H]32)NC(c2nccs2)=N[C@H]1c1ccc(F)c(F)c1Cl (single isomer, unassigned) [Compound 42, 3-((cis)-1-((6-(2-Chloro-3,4-difluorophenyl)-5-(methoxycarbonyl)-2-(thiazol-2-yl)-3,6-dihydropyrimidin-4-yl)methyl)-3,3-difluoro-4-oxohexahydropyrrolo[3,4-b]pyrrol-5(1H)-yl)-2,2-dimethylpropanoic acid]
- EC50 [1, 3]: 13.8 nM
- CC50 at 6 days [2]: > 100 µM

Compound: CCOC(=O)C1=C(CN2CC(F)(F)[C@H]3[C@@H]2CCN3CC[C@H]2C[C@H](C(=O)O)C2)NC(c2nccs2)=N[C@H]1c1cccc(F)c1C (single isomer, unassigned) [Compound 129B]
- EC50 [1, 3]: 2.9 nM
- CC50 at 6 days [2]: 12.4 µM

Compound: CCOC(=O)C1=C(CN2CC(F)(F)[C@@H]3C(=O)N([C@H]4CC[C@@H](C(=O)O)CC4)C[C@@H]32)NC(c2nccs2)=N[C@H]1c1cccc(F)c1C (single isomer, unassigned) [Compound 44A]
- EC50 [1, 3]: 56.7 nM
- CC50 at 6 days [2]: > 100 µM

Compound: CCOC(=O)C1=C(CN2CC(F)(F)[C@@H]3C(=O)N(CC4(C(=O)O)CC4)C[C@@H]32)NC(c2nccs2)=N[C@H]1c1cccc(F)c1C (single isomer, unassigned) [Compound 184]
- EC50 [1, 3]: 6.7 nM
- CC50 at 6 days [2]: 48.3 µM

Compound: CCOC(=O)C1=C(CN2C[C@@H](F)[C@@]3(F)CN(CC(C)(C)C(=O)O)C(=O)[C@@H]23)NC(c2nccs2)=N[C@H]1c1cccc(F)c1C (single isomer, unassigned) [Compound 203A]
- EC50 [1, 3]: 16.7 nM
- CC50 at 6 days [2]: 44.6 µM

Compound: CCOC(=O)C1=C(CN2CC(F)(F)[C@H]3[C@@H]2CCN3CC2(C(=O)O)CC2)NC(c2nccs2)=N[C@H]1c1cccc(F)c1C (relative stereo) [Compound 38A, 1-((4-(((S)-5-(ethoxycarbonyl)-6-(3-fluoro-2-methylphenyl)-2-(thiazol-2-yl)-3,6-dihydropyrimidin-4-yl)methyl)-6,6-difluorohexahydropyrrolo[3,2-b]pyrrol-1(2H)-yl)methyl)cyclopropane-1-carboxylic acid]
- EC50 [1, 3]: 1.5 nM
- CC50 at 6 days [2]: 20 µM

Compound: COC(=O)C1=C(CN2CC(F)(F)[C@@H]3[C@H]2CON3CCC(C)(C)C(=O)O)NC(c2nccs2)=N[C@H]1c1ccc(F)cc1Cl (single isomer, unassigned) [Compound 168, 4-((cis)-4-((6-(2-chloro-4-fluorophenyl)-5-(methoxycarbonyl)-2-(thiazol-2-yl)-3,6-dihydropyrimidin-4-yl)methyl)-6,6-difluorohexahydro-1H-pyrrolo[3,2-c]isoxazol-1-yl)-2,2-dimethylbutanoic acid]
- EC50 [1, 3]: 9 nM
- CC50 at 6 days [2]: > 100 µM

Compound: CCOC(=O)C1=C(CN2CC(F)(F)[C@H]3[C@@H]2CCN3C(N)=O)NC(c2nccs2)=N[C@H]1c1cccc(F)c1C (single isomer, unassigned) [Compound 36]
- EC50 [1, 3]: 30.1 nM
- CC50 at 6 days [2]: 26 µM

Compound: CCOC(=O)C1=C(CN2CC(F)(F)[C@@H]3C(=O)N(CC(C)(C)C(=O)O)C[C@@H]32)NC(c2nccs2)=N[C@H]1c1cccc(F)c1C (relative stereo) [Compound 5A, 3-(1-(((S)-5-(ethoxycarbonyl)-6-(3-fluoro-2-methylphenyl)-2-(thiazol-2-yl)-3,6-dihydropyrimidin-4-yl)methyl)-3,3-difluoro-4-oxohexahydropyrrolo[3,4-b]pyrrol-5(1H)-yl)-2,2-dimethylpropanoic acid]
- EC50 [1, 3]: 8.2 nM
- CC50 at 6 days [2]: 70.4 µM

Compound: CCOC(=O)C1=C(CN2CC(F)(F)[C@H]3[C@@H]2CCN3CCC(C)(C)c2nnn[nH]2)NC(c2nccs2)=N[C@H]1c1cccc(F)c1C (single isomer, unassigned) [Compound 108]
- EC50 [1, 3]: 0.4 nM
- CC50 at 6 days [2]: 13.1 µM

Compound: COC(=O)C1=C(CN2CC(F)(F)[C@H]3[C@@H]2CCN3C[C@@H](C)C(=O)O)NC(c2nccs2)=N[C@H]1c1cccc(F)c1C (single isomer, unassigned) [Compound 131A, 3-((cis)-6,6-Difluoro-4-(((S*)-6-(3-fluoro-2-methylphenyl)-5-(methoxycarbonyl)-2-(thiazol-2-yl)-3,6-dihydropyrimidin-4-yl)methyl)hexahydropyrrolo[3,2-b]pyrrol-1(2H)-yl)-2-methylpropanoic acid]
- EC50 [1]: 0.5 nM
- CC50 at 6 days [2]: 44.6 µM

Compound: CCOC(=O)C1=C(CN2CC(F)(F)[C@H]3[C@@H]2CCN3CC(C)(C)C(=O)O)NC(c2nccs2)=N[C@@H]1c1ccc(F)nc1C (single isomer, unassigned) [Compound 159, 3-((cis)-4-((5-(ethoxycarbonyl)-6-(6-fluoro-2-methylpyridin-3-yl)-2-(thiazol-2-yl)-3,6-dihydropyrimidin-4-yl)methyl)-6,6-difluorohexahydropyrrolo[3,2-b]pyrrol-1(2H)-yl)-2,2-dimethylpropanoic acid]
- EC50 [1, 3]: 0.6 nM
- CC50 at 6 days [2]: 75.7 µM

Compound: CCOC(=O)C1=C(CN2CC(F)(F)C3[C@@H]2CCN3C2CC(C)(C(=O)O)C2)NC(c2nccs2)=N[C@H]1c1cccc(F)c1C (single isomer, unassigned) [Compound 112]
- EC50 [1, 3]: 5.3 nM
- CC50 at 6 days [2]: 28.6 µM

Compound: CCOC(=O)C1=C(CN2CC(F)(F)[C@@H]3CN(C[C@H](CC)C(=O)O)C(=O)[C@@H]32)NC(c2nccs2)=N[C@H]1c1cccc(F)c1C (single isomer, unassigned) [Compound 183B]
- EC50 [1, 3]: 6.4 nM
- CC50 at 6 days [2]: 50.2 µM

Compound: CCOC(=O)C1=C(CN2CC(F)(F)[C@@H]3[C@H]2CN(C(C)=O)N3CCC(C)(C)C(=O)O)NC(c2nccs2)=N[C@H]1c1ccc(F)c(F)c1F (single isomer, unassigned) [Compound 83A, 4-((cis)-2-acetyl-4-((5-(ethoxycarbonyl)-2-(thiazol-2-yl)-6-(2,3,4-trifluorophenyl)-3,6-dihydropyrimidin-4-yl)methyl)-6,6-difluorohexahydropyrrolo[3,2-c]pyrazol-1(2H)-yl)-2,2-dimethylbutanoic acid]
- EC50 [1, 3]: 46 nM
- CC50 at 6 days [2]: 73.5 µM

Compound: CCOC(=O)C1=C(CN2CC(F)(F)[C@@H]3[C@H]2CON3CCC(C)(C)C(=O)O)NC(c2nccs2)=NC1c1cccc(F)c1Cl (single isomer, unassigned) [Compound 171, (cis)-4-(4-((6-(2-chloro-3-fluorophenyl)-5-(ethoxycarbonyl)-2-(thiazol-2-yl)-3,6-dihydropyrimidin-4-yl)methyl)-6,6-difluorohexahydro-1H-pyrrolo[3,2-c]isoxazol-1-yl)-2,2-dimethylbutanoic acid]
- EC50 [1, 3]: 4 nM
- CC50 at 6 days [2]: 32.3 µM

Compound: CCOC(=O)C1=C(CN2CC(F)(F)[C@H]3[C@@H]2CCN3C[C@H]2C[C@](C)(C(=O)O)C2)NC(c2nccs2)=N[C@H]1c1cccc(F)c1C (single isomer, unassigned) [Compound 116B]
- EC50 [1, 3]: 2.5 nM
- CC50 at 6 days [2]: 10.6 µM

Compound: COC(=O)C1=C(CN2CC(F)(F)[C@H]3[C@@H]2CCN3CCC(C)(C)C(=O)O)NC(c2ncoc2C)=N[C@H]1c1ccc(F)cc1Cl (single isomer, unassigned) [Compound 125, 4-((cis)-4-((6-(2-chloro-4-fluorophenyl)-5-(methoxycarbonyl)-2-(5-methyloxazol-4-yl)-3,6-dihydropyrimidin-4-yl)methyl)-6,6-difluorohexahydropyrrolo[3,2-b]pyrrol-1(2H)-yl)-2,2-dimethylbutanoic acid]
- EC50 [1, 3]: 9.3 nM
- CC50 at 6 days [2]: 58.4 µM
